From patent publication US8937068B2, “Pyridopyrazine derivatives and their use” (Zentaris GmbH, priority 2005, dated 2015)

Key:
[1] = molecular target: Erk2 (Homo sapiens, UniProt P28482); experiment: Cell-free kinase assay (ALPHA technology), Erk2; type: biochemical; settings: 10 μM ATP
Method: The inhibitory effect of the compounds according to the invention was tested on various serine/threonine, tyrosine and lipid kinases in enzymatic assays. […] The commercial kinase proteins (Proqinase, Upstate) were used as recombinant fusion proteins with GST (glutathion-S-transferase) or His-Tag. Depending on the type of substrate, the various kinase reactions were quantified by means of suitable ALPHA™ beads (Perkin-Elmer). The substance testing is described in detail hereinafter for the Erk assay. […] a) MAPK-ALPHAs (e.g. […] The kinase reaction was then stopped by adding ALPHA bead mixes (10 μg/ml, #6760603/Perkin-Elmer) pre-incubated with 1 nM GST:Grp1 fusion protein (Upstate) and 15 nM biotinylated PIP3 (#C-39B6/Echelon) in 50 mM Hepes, 50 mM NaCl, 50 mM EDTA and 0.1% BSA and left to stand overnight. The fluorescence was detected the following morning in a Fusion™^aα-system (Perkin-Elmer). […] Eight determinations were made for each control and two for the substance samples. […] The IC50 values were determined using GraphPadPrism.

[2] = molecular target: PI3Kalpha (Homo sapiens (Human), UniProt P42336); experiment: Cell-free kinase assay (ALPHA technology), PI3Kalpha; type: biochemical; settings: 100 μM ATP
PI3Kalpha, sequence (P42336 whole entry, the tested form may be a part): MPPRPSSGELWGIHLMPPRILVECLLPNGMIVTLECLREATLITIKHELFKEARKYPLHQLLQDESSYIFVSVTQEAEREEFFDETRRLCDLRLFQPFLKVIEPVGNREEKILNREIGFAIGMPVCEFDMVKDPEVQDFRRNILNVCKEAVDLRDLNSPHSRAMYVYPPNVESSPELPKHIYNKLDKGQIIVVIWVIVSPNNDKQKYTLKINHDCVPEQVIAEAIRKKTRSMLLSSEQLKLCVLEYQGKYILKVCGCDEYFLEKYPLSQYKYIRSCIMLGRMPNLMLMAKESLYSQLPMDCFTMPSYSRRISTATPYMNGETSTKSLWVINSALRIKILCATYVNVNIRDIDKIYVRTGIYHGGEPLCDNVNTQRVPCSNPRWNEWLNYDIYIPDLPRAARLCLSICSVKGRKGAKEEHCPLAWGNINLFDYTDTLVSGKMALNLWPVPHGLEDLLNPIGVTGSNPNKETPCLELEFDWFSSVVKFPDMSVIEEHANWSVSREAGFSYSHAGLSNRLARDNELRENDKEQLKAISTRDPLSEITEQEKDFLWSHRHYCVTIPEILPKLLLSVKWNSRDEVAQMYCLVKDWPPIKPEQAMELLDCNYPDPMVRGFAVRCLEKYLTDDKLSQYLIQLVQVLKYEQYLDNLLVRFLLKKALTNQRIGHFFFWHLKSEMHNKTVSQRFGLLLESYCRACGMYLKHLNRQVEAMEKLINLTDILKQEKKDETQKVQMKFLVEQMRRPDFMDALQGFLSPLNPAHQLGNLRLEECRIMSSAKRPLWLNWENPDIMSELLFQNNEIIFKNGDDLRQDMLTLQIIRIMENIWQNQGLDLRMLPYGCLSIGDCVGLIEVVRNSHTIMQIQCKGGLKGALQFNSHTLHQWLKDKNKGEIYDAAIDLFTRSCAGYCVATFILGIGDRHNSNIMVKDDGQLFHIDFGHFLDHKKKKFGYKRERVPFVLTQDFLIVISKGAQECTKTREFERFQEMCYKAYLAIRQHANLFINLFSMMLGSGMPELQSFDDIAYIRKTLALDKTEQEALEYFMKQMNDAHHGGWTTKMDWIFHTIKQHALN
PI3Kalpha, sequence (P27986 whole entry partner, the tested form may be a part): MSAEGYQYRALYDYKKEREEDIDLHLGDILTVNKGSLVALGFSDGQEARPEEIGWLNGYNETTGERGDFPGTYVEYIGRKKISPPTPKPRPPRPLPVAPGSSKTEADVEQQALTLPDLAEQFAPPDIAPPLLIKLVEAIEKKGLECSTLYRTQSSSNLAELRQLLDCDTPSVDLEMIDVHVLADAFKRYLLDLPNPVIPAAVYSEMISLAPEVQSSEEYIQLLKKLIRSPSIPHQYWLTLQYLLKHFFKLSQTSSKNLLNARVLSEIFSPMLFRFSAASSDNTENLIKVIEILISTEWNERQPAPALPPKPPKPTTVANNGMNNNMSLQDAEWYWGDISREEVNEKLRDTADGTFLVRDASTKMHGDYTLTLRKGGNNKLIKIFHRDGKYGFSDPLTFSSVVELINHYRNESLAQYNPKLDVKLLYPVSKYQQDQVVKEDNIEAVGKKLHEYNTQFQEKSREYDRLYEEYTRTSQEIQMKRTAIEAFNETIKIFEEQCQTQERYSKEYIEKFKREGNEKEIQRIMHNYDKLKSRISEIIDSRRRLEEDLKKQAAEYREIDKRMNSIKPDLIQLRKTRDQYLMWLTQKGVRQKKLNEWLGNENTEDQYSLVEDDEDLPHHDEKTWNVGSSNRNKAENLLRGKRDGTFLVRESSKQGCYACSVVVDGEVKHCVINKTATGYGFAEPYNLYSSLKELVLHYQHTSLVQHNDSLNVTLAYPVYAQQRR
Method: (§1) The inhibitory effect of the compounds according to the invention was tested on various serine/threonine, tyrosine and lipid kinases in enzymatic assays. Recombinant human kinases such as, for example, Erk2, PI3Kalpha, -beta, -gamma, -delta, p38alpha, p38gamma, Jnk1, Jnk2 and others were used in this case, partly as full-length kinases, partly as shortened fragments, but at least consisting of the functional kinase domains. The commercial kinase proteins (Proqinase, Upstate) were used as recombinant fusion proteins with GST (glutathion-S-transferase) or His-Tag. Depending on the type of substrate, the various kinase reactions were quantified by means of suitable ALPHA™ beads (Perkin-Elmer).
(§2) The substance testing is described in detail hereinafter for the Erk assay.
(§3) a) MAPK-ALPHAs (e.g. Erk2): the test substance, 0.625 ng Erk2 (#14-173, Upstate), 10 μM ATP and 15 nM biotinylated MBP (myelin basic protein) substrate were incubated on a 384-well Optiplate (Perkin-Elmer) in a volume of 15 μl for 1 h in 25 mM Tris, 10 mM MgCl2, 0.1% Tween-20, 100 μM NaVO4, 2 mM DTT at pH 7.5. The kinase reaction was then stopped by adding 10 μl of the ALPHA bead mixes (10 μg/ml, #6760617/Perkin-Elmer) pre-incubated with anti-phospho MBP antibody (320 pM, #05-429/Upstate) in 25 mM Tris, 200 mM NaCl, 110 nM EDTA and 0.3% BSA and left to stand overnight. b) PI3K-ALPHAs (e.g. PI3Kalpha): the test substance, 1 ng PI3Kalpha (#14-602, Upstate), 100 μM ATP and 20 μM PIP2 substrate (#P4508, Echelon) were incubated on a 384-well Optiplate (Perkin-Elmer) for 1 h in 50 mM Hepes, 50 mM NaCl, 5 mM MgCl2, 0.05% Chaps, 5 mM DTT at pH 7.4. The kinase reaction was then stopped by adding ALPHA bead mixes (10 μg/ml, #6760603/Perkin-Elmer) pre-incubated with 1 nM GST:Grp1 fusion protein (Upstate) and 15 nM biotinylated PIP3 (#C-39B6/Echelon) in 50 mM Hepes, 50 mM NaCl, 50 mM EDTA and 0.1% BSA and left to stand overnight.
(§4) The fluorescence was detected the following morning in a Fusion™^aα-system (Perkin-Elmer).
(§5) The %-inhibition values per substance concentration were calculated by means of the following formula from the raw data determined in the Fusion™ ? :
(§6) Eight determinations were made for each control and two for the substance samples. The 0% control either contains no ATP or no substrate, the 100% control (fully active kinase) contains no test substance. The IC50 values were determined using GraphPadPrism.

[3] = molecular target: p38alpha (Homo sapiens (Human), UniProt Q16539); experiment: Cell-free kinase assay (ALPHA technology), p38alpha; type: biochemical; settings: 10 μM ATP
p38alpha, sequence (Q16539 whole entry): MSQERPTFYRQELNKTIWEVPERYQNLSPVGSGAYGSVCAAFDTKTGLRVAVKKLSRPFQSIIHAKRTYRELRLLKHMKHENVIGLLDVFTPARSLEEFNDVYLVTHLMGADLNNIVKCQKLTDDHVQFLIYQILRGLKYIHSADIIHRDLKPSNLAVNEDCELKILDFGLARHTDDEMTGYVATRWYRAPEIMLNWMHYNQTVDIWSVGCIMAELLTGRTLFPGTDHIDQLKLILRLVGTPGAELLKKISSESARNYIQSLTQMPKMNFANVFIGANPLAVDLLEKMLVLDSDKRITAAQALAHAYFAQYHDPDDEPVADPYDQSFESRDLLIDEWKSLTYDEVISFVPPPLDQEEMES
Method: as §1, §2, §3, §4, §5, §6

[4] = test system: Jnk1 + Jnk2; experiment: Cell-free kinase assay (ALPHA technology), Jnk1 + Jnk2; type: biochemical, human; settings: 10 μM ATP
Method: as §1, §2, §3, §4, §5, §6

Erk2, sequence (P28482 2-360 limits assumed): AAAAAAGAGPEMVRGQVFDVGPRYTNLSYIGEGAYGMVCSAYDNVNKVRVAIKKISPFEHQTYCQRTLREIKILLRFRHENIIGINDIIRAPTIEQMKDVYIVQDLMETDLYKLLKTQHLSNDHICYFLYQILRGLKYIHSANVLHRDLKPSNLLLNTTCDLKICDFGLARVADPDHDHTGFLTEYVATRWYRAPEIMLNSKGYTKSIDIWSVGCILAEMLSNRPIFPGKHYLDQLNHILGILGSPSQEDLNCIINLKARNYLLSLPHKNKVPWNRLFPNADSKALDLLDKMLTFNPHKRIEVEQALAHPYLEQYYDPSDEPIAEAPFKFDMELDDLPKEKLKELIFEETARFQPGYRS

Row | Compound | melting point | IC50 [1] [µM] | IC50 [2] [µM] | IC50 [3] [µM] | IC50 [4] [µM]
1 | C=CCNC(=S)Nc1ccc2ncc(-c3ccc([N+](=O)[O-])cc3)nc2n1 [Compound 24, 1-allyl-3-[3-(4-nitro-phenyl)-pyrido[2,3-b]pyrazin-6-yl]-thiourea] | 244 °C (dec.) |  |  |  | 
2 | Fc1ccc(NC(=S)Nc2ccc3ncc(-c4ccccc4)nc3n2)cc1 [Compound 14, 1-(4-fluoro-phenyl)-3-(3-phenyl-pyrido[2,3-b]pyrazin-6-yl)-thiourea] | 225 to 226 °C |  |  |  | 
3 | C=CCNC(=S)Nc1ccc2nc(-c3ccc(O)cc3)cnc2n1 [Compound 34, 1-allyl-3-[2-(4-hydroxy-phenyl)-pyrido[2,3-b]pyrazin-6-yl]-thiourea] | 260 °C (dec.) |  |  |  | 
4 | CC(C)NC(=S)Nc1ccc2ncc(-c3ccccc3)nc2n1 [Compound 19, 1-isopropyl-3-(3-phenyl-pyrido[2,3-b]pyrazin-6-yl)-thiourea] | 229 to 230 °C |  |  |  | 
5 | CCNC(=O)Nc1ccc2nc(C)c(C)nc2n1 [Compound 37, 1-(2,3-Dimethyl-pyrido[2,3-b]pyrazin-6-yl)-3-ethyl-urea] | 246 to 248 °C |  |  |  | 
6 | O=C(NCCc1ccccc1)Nc1ccc2ncc(-c3ccccc3)nc2n1 [Compound 35, 1-Phenethyl-3-(3-phenyl-pyrido[2,3-b]pyrazin-6-yl)-urea] | 250 °C (dec.) |  |  |  | 
7 | C=CCNC(=S)Nc1ccc2ncc(-c3ccc(C(=O)OCC)cc3)nc2n1 [Compound 26, 4-[6-(3-allyl-thioureido)-pyrido[2,3-b]pyrazin-3-yl]-benzoic acid ethyl ester] | 223 to 224 °C |  |  |  | 
8 | C/C=C/NC(=S)Nc1ccc2nc(-c3ccc(O)cc3)c(-c3ccc(O)cc3)nc2n1 [Compound 33, 1-[2,3-bis-(4-hydroxy-phenyl)-pyrido[2,3-b]pyrazin-6-yl]-3-((E)-propenyl)-thiourea] | 240 °C (dec.) |  |  |  | 
9 | S=C(Nc1ccc2ncc(-c3ccccc3)nc2n1)NC1CC1 [Compound 11, 1-cyclopropyl-3-(3-phenyl-pyrido[2,3-b]pyrazin-6-yl)-thiourea] | 233 to 234 °C |  |  |  | 
10 | CCNC(=O)Nc1ccc2nc(-c3ccccn3)c(-c3ccccn3)nc2n1 [Compound 36, 1-(2,3-Di-pyridin-2-yl-pyrido[2,3-b]pyrazin-6-yl)-3-ethyl-urea] | 236 to 237 °C |  |  |  | 
11 | C=CCNC(=S)Nc1ccc2ncc(-c3ccc(OC)cc3)nc2n1 [Compound 6, 1-allyl-3-[3-(4-methoxy-phenyl)-pyrido[2,3-b]pyrazin-6-yl]-thiourea] | 240 to 241 °C (dec.) |  |  |  | 
12 | C=CCNC(=S)Nc1ccc2ncc(-c3ccc4c(c3)OCO4)nc2n1 [Compound 28, 1-allyl-3-(3-benzo[1,3]dioxol-5-yl-pyrido[2,3-b]pyrazin-6-yl)-thiourea] | 218 to 220 °C (dec.) |  |  |  | 
13 | CNC(=S)Nc1ccc2ncc(-c3ccccc3)nc2n1 [Compound 12, 1-methyl-3-(3-phenyl-pyrido[2,3-b]pyrazin-6-yl)-thiourea] | 253 to 254 °C |  |  |  | 
14 | S=C(Nc1ccc2ncc(-c3ccccc3)nc2n1)NC1CCCCC1 [Compound 18, 1-cyclohexyl-3-(3-phenyl-pyrido[2,3-b]pyrazin-6-yl)-thiourea] | 230 to 232 °C |  |  |  | 
15 | CCNC(=O)Nc1ccc2ncc(Nc3ccc(OC)c(OC)c3)nc2n1 [Compound 187, 1-[3-(3,4-Dimethoxy-phenylamino)-pyrido[2,3-b]pyrazin-6-yl]-3-ethyl-urea] |  | 16.6 | 0.712 | > 31.6 | > 100
16 | CCNC(=O)Nc1ccc2ncc(Nc3ccc(C)c(O)c3)nc2n1 [Compound 188, 1-Ethyl-3-[3-(3-hydroxy-4-methyl-phenylamino)-pyrido[2,3-b]pyrazin-6-yl]-urea] |  | > 100 | 2.8 | > 100 | > 31.6
17 | CCNC(=O)Nc1ccc2ncc(Nc3cccc(OC(C)C)c3)nc2n1 [Compound 182, 1-Ethyl-3-[3-(3-isopropoxy-phenylamino)-pyrido[2,3-b]pyrazin-6-yl]-urea] |  | > 31.6 | 1.1 | > 100 | 21
18 | CCNC(=O)Nc1ccc2ncc(Nc3ccc(OC)cc3)nc2n1 [Compound 158, 1-Ethyl-3-[3-(4-methoxy-phenylamino)-pyrido[2,3-b]pyrazin-6-yl]-urea] |  | > 100 | 0.186 | > 100 | > 31.6
19 | CCNC(=O)Nc1ccc2ncc(-c3c(C)n[nH]c3C)nc2n1 [Compound 172, 1-[3-(3,5-Dimethyl-1H-pyrazol-4-yl)-pyrido[2,3-b]pyrazin-6-yl]-3-ethyl-urea] |  | 0.41 | 4 | > 100 | 4
20 | CCNC(=O)Nc1ccc2ncc(Nc3ccc(OC)nc3)nc2n1 [Compound 190, 1-Ethyl-3-[3-(6-methoxy-pyridin-3-ylamino)-pyrido[2,3-b]pyrazin-6-yl]-urea] |  | > 100 | 0.271 | > 100 | 31
21 | CCNC(=O)Nc1ccc2ncc(Nc3ccc(C#N)cc3)nc2n1 [Compound 192, 1-[3-(4-Cyano-phenylamino)-pyrido-[2,3-b]pyrazin-6-yl]-3-ethyl-urea] |  | 31.6 | 0.422 | > 100 | 1.8
22 | CCNC(=O)Nc1ccc2ncc(-c3cccc(C(=O)O)c3)nc2n1 [Compound 152, 3-[6-(3-Ethyl-ureido)-pyrido[2,3-b]pyrazin-3-yl]-benzoic acid] |  | 1.9 | 5.3 | > 100 | 12.1
23 | CCNC(=O)Nc1ccc2ncc(Nc3ccc(Cl)cc3)nc2n1 [Compound 159, 1-[3-(4-Chloroo-phenylamino)-pyrido-[2,3-b]pyrazin-6-yl]-3-ethyl-urea] |  | > 100 | 0.147 | > 100 | 12.6
24 | CCNC(=O)Nc1ccc2ncc(-c3ccc(N)cc3)nc2n1 [Compound 82, 1-[3-(4-Amino-phenyl)-pyrido[2,3-b]pyrazin-6-yl]-3-ethyl-urea] |  | 0.944 | 6.4 | > 31.6 | 1.1
25 | CCNC(=O)Nc1ccc2ncc(Nc3cc(Cl)c(O)c(Cl)c3)nc2n1 [Compound 185, 1-[3-(3,5-Dichloro-4-hydroxy-phenylamino)-pyrido[2,3-b]pyrazin-6-yl]-3-ethyl-urea] |  | > 31.6 | 0.154 | > 100 | 4.3
26 | CCNC(=O)Nc1ccc2ncc(Nc3cc(OC)cc(OC)c3)nc2n1 [Compound 180, 1-[3-(3,5-Dimethoxy-phenylamino)-pyrido[2,3-b]pyrazin-6-yl]-3-ethyl-urea] |  | 15.7 | 1.1 | > 100 | 8.6
27 | 1-[3-(3,5-Dichloro-4-hydroxy-phenyl)-pyrido[2,3-b]pyrazin-6-yl]-3-ethyl-urea [Compound 186] |  | 0.223 | 3.8 | > 100 | 2.5
28 | CCNC(=O)Nc1ccc2ncc(-c3ccc(N)c(OC)c3)nc2n1 [Compound 154, 1-[3-(4-Amino-3-methoxy-phenyl)-pyrido[2,3-b]pyrazin-6-yl]-3-ethyl-urea] |  | 0.592 | 0.984 | > 31.6 | 2.8
